Measured values: US20240156764A1, “INHIBITION OF URACIL DNA GLYCOSYLASE IN THE OPEN CONFORMATION” (CASE WESTERN RESERVE UNIVERSITY, priority 2022, published 2024)
Values joined by “and” are separate entries in the source; they are usually repeats but may differ in a detail not shown here. Equal values may be shown once. Read-outs that look alike come from different tables or passages of the source.

Key:
human OGG1 protein = target: T1, human OGG1 protein (Homo sapiens, UniProt O15527); experiment: Gel-based DNA cleavage assay with a single oxoG:C basepair; format: biochemical
T1 construct: purchased NEBiolabs (New England Biolabs)
T1 sequence (O15527 whole entry): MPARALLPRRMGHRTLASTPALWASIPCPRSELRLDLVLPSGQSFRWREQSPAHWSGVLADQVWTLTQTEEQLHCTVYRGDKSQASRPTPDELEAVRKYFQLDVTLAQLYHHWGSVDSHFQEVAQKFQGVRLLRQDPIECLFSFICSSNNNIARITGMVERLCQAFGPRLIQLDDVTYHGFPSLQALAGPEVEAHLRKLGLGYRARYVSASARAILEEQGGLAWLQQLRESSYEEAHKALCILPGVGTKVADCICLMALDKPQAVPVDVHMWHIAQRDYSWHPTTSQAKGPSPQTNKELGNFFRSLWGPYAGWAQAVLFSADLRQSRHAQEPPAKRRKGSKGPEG
Experimental: 20% polyacrylamide nucleic acid urea gel electrophoresis was used to resolve the DNA bands at room temperature, 200 v for 50 min. Analysis and quantification of DNA cleavage were done as follows. A background subtraction step was included using the 23mer from the DNA only lane. […] B: Points on the plot were averaged from four different gels. The IC50 value was generated using Prism software version 8.4.3, non-linear fit, [inhibitor] vs. response (three parameters, R2=0.99) averaging points from four different gels. Y error bars represent the standard deviation from the mean. […] A single oxo-guanine: cytosine base pair DNA with a Cy3 fluorescent tag on the 3′ end was used (10 nM). D: The IC50 value was generated using Prism software version 8.4.3, non-linear fit, [inhibitor] vs. response (three parameters, R2=0.98) averaging points from three different gels.
Following pre-incubation occurred for 20 min at 37° C., 2 μL of U:A DNA (500 nM stock) was added to initiate the reaction, total reaction volume of 50 μL/well. Each plate was incubated for 120 min at 37° C. […] Gel data were analyzed using ImageJ software. […] Percent cleavage was calculated by using fluorescence intensity of the cleaved 23-mer DNA strand divided by the sum of the fluorescence bands (23mer+40mer DNA strands)*100. […]

[1] = system: A:8oxoG (MPG, MUTYH) repair in MCF-7 cells; experiment: Host-cell reactivation assay, A:8oxoG reporter, MCF-7; format: cell-based, human; details: ATA 2.5 μM
human UDG [2] = target: T2, human UDG (Homo sapiens, UniProt P13051); experiment: Gel-based DNA cleavage assay with a single U:A basepair; format: biochemical; parameters: 6xHis; purchased XTAL Biostructures; host or cells: Sf9 insect cells
Experimental: 20% polyacrylamide nucleic acid urea gel electrophoresis was used to resolve the DNA bands at room temperature, 200 v for 50 min. Analysis and quantification of DNA cleavage were done as follows. A background subtraction step was included using the 23mer from the DNA only lane. […] A single oxo-guanine: cytosine base pair DNA with a Cy3 fluorescent tag on the 3′ end was used (10 nM).
Following pre-incubation occurred for 20 min at 37° C., 2 μL of U:A DNA (500 nM stock) was added to initiate the reaction, total reaction volume of 50 μL/well. Each plate was incubated for 120 min at 37° C. Then, each 96 well plate was sealed and heated at a constant temperature of 95° C. for 55 min using the CFX96 real time system thermocycler. After the heating process, 5 μL of a bromophenol blue denaturing loading dye (20milligrams of bromophenol blue, 9.7 ml of formamide plus 300 μL of 10M NaOH) was added to each reaction well. […] TBE buffer was prepared by dissolving 54 grams of tris base, 28 grams of boric acid, and 4.5 grams of EDTA in 1.0 liter of distilled H2O. Gels were processed at 200V for 60 min in the dark. Gels were imaged based on the fluorescent tags using Typhoon Trio+Variable Mode Imager (Amersham Biosciences) with excitation and emission wavelengths set to 532 nm and 585 nm respectively, photomultiplier tube voltage (PMT) was set to 400V, and pixel size resolution set to 100 μm. Gel data were analyzed using ImageJ software. DNA bands were corrected using a background subtraction step. Percent cleavage was calculated by using fluorescence intensity of the cleaved 23-mer DNA strand divided by the sum of the fluorescence bands (23mer+40mer DNA strands)*100. Relative percent cleavage was generated by using the untreated DMSO condition divided by each treated drug dose*100.
Target sequence in this assay (P13051 1-304 isoform P13051-2): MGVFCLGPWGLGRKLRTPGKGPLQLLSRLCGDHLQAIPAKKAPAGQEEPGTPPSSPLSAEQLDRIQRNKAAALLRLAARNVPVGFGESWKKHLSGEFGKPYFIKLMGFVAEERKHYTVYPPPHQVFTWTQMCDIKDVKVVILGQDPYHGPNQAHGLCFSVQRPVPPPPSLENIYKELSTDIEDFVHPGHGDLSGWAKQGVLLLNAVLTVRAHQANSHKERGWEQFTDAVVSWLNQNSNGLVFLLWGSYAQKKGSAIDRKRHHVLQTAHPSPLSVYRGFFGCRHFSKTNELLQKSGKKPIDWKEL

human UDG [3] = target: T2, human UDG; experiment: Time course of human UDG activity on uracil DNA hairpin; format: biochemical; parameters: Bacterially expressed and purified full-length human UDG; made in house
Excerpt: RFU was monitored over time. Each point on plot represents an average of three replicates. Error bar represents standard deviation from the mean. […] Each data point on the plot is the average of 3 wells (DMSO condition). Error bars represent standard deviation from the mean. […] UDG protein was not added to each reaction. […] Fluorescently labeled FAM-uDNA hairpin was monitored over the melting of the DNA hairpin. […] Each point represents an average of 4 experimental wells. Y Error bars represent the standard deviation from the mean.
To better examine UDG inhibitor activity, we monitored human UDG activity over time.
Target sequence in this assay (P13051 whole entry): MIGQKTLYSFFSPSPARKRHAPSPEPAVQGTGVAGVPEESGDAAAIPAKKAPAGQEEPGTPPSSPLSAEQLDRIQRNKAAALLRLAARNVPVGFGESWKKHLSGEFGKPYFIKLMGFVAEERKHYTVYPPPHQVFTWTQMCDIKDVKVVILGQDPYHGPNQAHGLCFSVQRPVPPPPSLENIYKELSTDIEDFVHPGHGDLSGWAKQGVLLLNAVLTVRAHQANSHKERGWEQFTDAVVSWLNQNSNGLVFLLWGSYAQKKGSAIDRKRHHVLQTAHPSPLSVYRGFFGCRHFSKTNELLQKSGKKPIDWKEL

In the case of `O=C(O)C1=CC(=C(c2ccc(O)c(C(=O)O)c2)c2ccc(O)c(C(=O)O)c2)C=CC1=O` [ATA, aurintricarboxylic acid], the “inhibitory effect on purified human OGG1” value (human OGG1 protein; OGG1 10 nM, compared with UDG) is reported as “lesser inhibitory effect”, the IC50 (human OGG1 protein; dsDNA with single 8oxoG:C bp, gel-based) is reported as 4500 nM and the “inhibition of repair of A:8oxoG basepair” value [1] is reported as “not inhibiting”. For the same compound, the “UDG-mediated DNA cutting activity” value (human UDG [2]; ATA 0.46-12.5 μM, UDG 500 pM, DNA 20 nM) was “diminishes UDG-mediated DNA cutting activity in a dose-dependent manner”, the IC50 (human UDG [2]; dsDNA oligo with single U:A base pair, gel-based, read-out: average IC50 towards UDG) was 700 nM and ~700 nM and the IC50 (human UDG [2]; estimated, read-out: IC50, DNA cutting) was 700 nM. For the same compound, the “reduction of UDG-mediated un-quenching of u-DNA hairpin” value (human UDG [3]; ATA below 250 nM, fixed DNA substrate, 5-hour time course) was “unable to significantly compete” and the “UDG activity over time” value (human UDG [3]; ATA fixed dose of 500 nM, range of uracil DNA hairpin concentrations) was “persistently diminished UDG activity”.
